Measured values published in patent publication US20100099564A1, “HERBICIDE COMBINATION COMPRISING DIMETHOXYTRIAZINYL-SUBSTITUTED DIFLUOROMETHANESULFONYLANILIDES” (BAYER CROPSCIENCE AG, priority 2008, published 2010).
Like-named read-outs stand apart in the source and are kept apart here.

Experiments:
Type in all cases: in vivo
[1] = tested on: Triticum aestivum (TRZAS); assay: Post-emergence action, greenhouse pot test, visual scoring: TRZAS; conditions: for (7) % activity found: 21 DAT
Procedure: (§1) Seeds or rhizome pieces of mono- and dicotyledonous harmful and useful plants were placed in peat pots (diameter 4 cm) filled with sandy loam and then covered with soil. The pots were kept in a greenhouse under optimum conditions. In addition, harmful plants encountered in paddy rice cultivation were cultivated in pots with a water level 2 cm above the soil surface.
(§2) About three weeks after the start of the cultivation, the test plants were treated at the 2- to 3-leaf stage. The herbicides, formulated as powder or liquid concentrates, were, either alone or in the combinations according to the invention, sprayed in various dosages on to the green parts of the plants using an application rate of 600 l of water/ha (converted). For further cultivation of the plants, the pots were then again kept under optimum conditions in a greenhouse.
(§3) The visual scoring of the herbicidal effects was carried out in intervals up to 21 days after the treatment. Scoring was carried out in percent in comparison to the untreated control plants. 0%=no herbicidal activity, 100%=complete herbicidal activity=complete kill.
(§4) The percentages from the treatments with the herbicides alone (=individual application) and with the combinations according to the invention (=mixtures) were employed to calculate interactions using the method of Colby. When the observed efficacies of the mixtures exceed the formal sum of the values of the tests with individual applications, they also exceed the expected value according to Colby, which is calculated using the formula below (cf. S. R. Colby; in Weeds 15 (1967) pp. 20 to 22):
(§5) Here: • A, B=activity of components A and B in percent at a dosage of a and b g of ai/ha (=gramm of active substance per hectare), respectively. • E=expected value in % at a dosage of a+b g of ai/ha.
(§6) The combinations according to the invention of herbicides from group (A) with herbicides from group (B) were tested on a broad spectrum of important harmful plants (weed grasses, broad-leaved weeds/Cyperaceae) and useful plants: Triticum aestivum (TRZAS), Stellaria media (STEME), Lolium multiflorum (LOLMU), Veronica persica (VERPE), Alopecurus myosuroides (ALOMY), Matricaria inodora (MATIN), Brassica napus (BRSNW), Viola tricolor (VIOTR), Avena fatua (AVEFA), Amaranthus retroflexus (AMARE), Zea mays (ZEAMX), Pharbitis purpurea (PHBPU), Setaria viridis (SETVI), Fallopia (ex Polygonum) convolvulus (POLCO), Echinochloa crusgaffi (ECHCG), Abuthilon theophrasti (ABUTH), Cyperus esculentus (CYPES), Oryza sativa (ORYSA).
(§7) Of particular interest are the results shown in the tables (Tab.) below, where the following key is used: • (1) EPPO code (former Bayer code) for the treated plant (see above) • (2) Time of scoring: DAT (days after treatment) • (3) Component A tested (identifying number) • (4) Component B tested (identifying number) • (5) Dosage component A [g of ai/ha] • (6) Dosage component B [g of ai/ha] • (7) % activity found • (8) E value (calculated according to Colby; see above) • (9) Comments: “SYNERGY” =synergistic interaction (E value<% activity found); “SAFENING”=safener action on useful plant (E value>% activity found)

[2] = tested on: Lolium multiflorum (LOLMU); assay: Post-emergence action, greenhouse pot test, visual scoring: LOLMU; conditions: for % activity found: 10 DAT; for (7) % activity found: 21 DAT
Procedure: as §1, §2, §3, §4, §5, §6, §7

[3] = tested on: Alopecurus myosuroides (ALOMY); assay: Post-emergence action, greenhouse pot test, visual scoring: ALOMY; conditions: for pest or weed control at 400 g/ha: B 400 g of ai/ha
Procedure: as §1, §2, §3, §4, §5

Avena fatua (AVEFA) = assay: Post-emergence action, greenhouse pot test, visual scoring: AVEFA
Procedure: as §1, §2, §3, §4, §5, §6, §7

Setaria viridis (SETVI) = assay: Post-emergence action, greenhouse pot test, visual scoring: SETVI; conditions: 21 DAT
Procedure: as §1, §2, §3, §4, §5, §6, §7

[4] = tested on: Echinochloa crusgaffi (ECHCG); assay: Post-emergence action, greenhouse pot test, visual scoring: ECHCG; conditions: 10 DAT
Procedure: as §1, §2, §3, §4, §5, §6, §7

[5] = tested on: Cyperus esculentus (CYPES); assay: Post-emergence action, greenhouse pot test, visual scoring: CYPES; conditions: rate (6) 18
Procedure: as §1, §2, §3, §4, §5

Stellaria media (STEME) = assay: Post-emergence action, greenhouse pot test, visual scoring: STEME; conditions: 10 DAT, B 400 g of ai/ha
Procedure: as §1, §2, §3, §4, §5, §6, §7

Veronica persica (VERPE) = assay: Post-emergence action, greenhouse pot test, visual scoring: VERPE
Procedure: as §1, §2, §3, §4, §5, §6, §7

[6] = tested on: Matricaria inodora (MATIN); assay: Post-emergence action, greenhouse pot test, visual scoring: MATIN
Procedure: as §1, §2, §3, §4, §5

[7] = tested on: Amaranthus retroflexus (AMARE); assay: Post-emergence action, greenhouse pot test, visual scoring: AMARE; conditions: 10 DAT
Procedure: as §1, §2, §3, §4, §5

Zea mays (ZEAMX) = assay: Post-emergence action, greenhouse pot test, visual scoring: ZEAMX; conditions: Zea mays, post-emergence, B 1200 g of ai/ha, read-out: % activity found
Procedure: as §1, §2, §3, §4, §5, §6, §7

[8] = tested on: Pharbitis purpurea (PHBPU); assay: Post-emergence action, greenhouse pot test, visual scoring: PHBPU
Procedure: as §1, §2, §3, §4, §5, §6, §7

[9] = tested on: Fallopia (ex Polygonum) convolvulus (POLCO); assay: Post-emergence action, greenhouse pot test, visual scoring: POLCO; conditions: 21 DAT
Procedure: as §1, §2, §3, §4, §5, §6, §7

[10] = tested on: Abuthilon theophrasti (ABUTH); assay: Post-emergence action, greenhouse pot test, visual scoring: ABUTH; conditions: 21 DAT, B 400 g of ai/ha
Procedure: as §1, §2, §3, §4, §5, §6, §7

Oryza sativa (ORYSA) = assay: Post-emergence action, greenhouse pot test, visual scoring: ORYSA; conditions: Oryza sativa, post-emergence, 240 h; 10 DAT, B 400 g of ai/ha; read-out: % activity found
Procedure: as §1, §2, §3, §4, §5, §6, §7

COc1cc(OC)nc(NC(=O)NS(=O)(=O)Nc2ccccc2C(=O)C2CC2)n1 [B7-7, N-[[[2-(cyclopropylcarbonyl)phenyl]amino]sulfonyl]-N′-(4,6-dimethoxy-2-pyrimidinyl)urea]
40%: (7) % activity found ([3]; 21 DAT, rate (6) 54) | (7) % activity found ([5]; 21 DAT)
0%: (7) % activity found ([1]; rate (6) 18) | (7) % activity found ([1]; rate (6) 54) | % activity found ([2]; dose (6) 18) | % activity found ([2]; dose (6) 54) | (7) % activity found ([2]; rate (6) 18) | (7) % activity found ([2]; rate (6) 54) | % activity found (Avena fatua (AVEFA); 10 DAT, dose (6) 18) | (7) % activity found (Avena fatua (AVEFA); 21 DAT, rate (6) 18) | (7) % activity found ([4]; rate (6) 18) | (7) % activity found ([4]; rate (6) 54) | (7) % activity found ([5]; 10 DAT)
20%: (7) % activity found (Setaria viridis (SETVI); rate (6) 18) | (7) % activity found (Setaria viridis (SETVI); rate (6) 54)
30%: (7) % activity found ([3]; 21 DAT, rate (6) 18) | % activity found (Avena fatua (AVEFA); 10 DAT, dose (6) 54)
10%: (7) % activity found (Avena fatua (AVEFA); 21 DAT, rate (6) 54)

CCCCOCN(C(=O)CCl)c1c(CC)cccc1CC [B4-3, N-(butoxymethyl)-2-chloro-N-(2,6-diethylphenyl)acetamide]
40%: % activity found ([2]; B 400 g of ai/ha) | % activity found ([6]; 21 DAT, B 1200 g of ai/ha)
50%: pest or weed control at 1200 g/ha ([3]; Alopecurus myosuroides, post-emergence, 504 h, 21 DAT, B 1200 g of ai/ha, read-out: % activity found) | % activity found (Avena fatua (AVEFA); 21 DAT, B 1200 g of ai/ha)
0%: plant injury at 400 g/ha ([1]; Triticum aestivum, post-emergence, 240 h, 10 DAT, B 400 g of ai/ha, read-out: % activity found) | % activity found (Stellaria media (STEME)) | % activity found (Veronica persica (VERPE); 10 DAT, B 400 g of ai/ha) | % activity found (Veronica persica (VERPE); 10 DAT, B 1200 g of ai/ha) | pest or weed control at 400 g/ha ([3]; Alopecurus myosuroides, post-emergence, 504 h, 21 DAT, read-out: % activity found) | % activity found ([6]; 10 DAT, B 400 g of ai/ha) | % activity found ([6]; 21 DAT, B 400 g of ai/ha) | % activity found ([7]; B 400 g of ai/ha) | % activity found ([7]; B 1200 g of ai/ha) | plant injury at 1200 g/ha (Zea mays (ZEAMX); 504 h, 21 DAT) | % activity found ([8]; 10 DAT, B 400 g of ai/ha) | % activity found ([8]; 10 DAT, B 1200 g of ai/ha) | % activity found ([8]; 21 DAT, B 400 g of ai/ha) | % activity found ([8]; 21 DAT, B 1200 g of ai/ha) | pest or weed control at 400 g/ha (Setaria viridis (SETVI); Setaria viridis, post-emergence, 504 h, B 400 g of ai/ha, read-out: % activity found) | % activity found ([9]; B 400 g of ai/ha) | % activity found ([9]; B 1200 g of ai/ha) | % activity found [10] | plant injury at 400 g/ha (Oryza sativa (ORYSA))
20%: % activity found (Veronica persica (VERPE); 21 DAT, B 1200 g of ai/ha) | pest or weed control at 400 g/ha ([3]; Alopecurus myosuroides, post-emergence, 240 h, 10 DAT, read-out: % activity found) | % activity found ([6]; 10 DAT, B 1200 g of ai/ha) | plant injury at 1200 g/ha (Zea mays (ZEAMX); 240 h, 10 DAT)
